Measured values: patent publication US12279618B2, “Use of dihydroporphin derived from chlorophyll as plant growth regulator” (Anqing Better Bioengineering Co., Ltd, priority 2019, dated 2025)

How the values were obtained:
Type in all cases: in vivo
corn seeds = assay: Corn seed germination experiment (seed soaking method, NYT 2061.1-2011)
Excerpt: Test Method: Ministerial Standard NYT 2061.1-2011, Seed Soaking Method
Test samples: crude chlorin, and dihydroporphin monomers including chlorin fG, chlorin e6, pheophorbide, pyropheophorbide, chlorin e4, purpurin-7, purpurin-18, chlorin p6, 15-formyl rhodochlorin, 15-oxymethyl rhodochlorin, 15-oxymethyl rhodochlorin lactone A, 15-hydroxymethyl rhodochlorin, and 15-hydroxymethyl rhodochlorin lactone B, and pure water and iron chlorin e6 (China Pesticide Registration Certificate Number: PD20190031) were used as blank and positive control.
10 mg of each sample was weighed and put into a 10 ml volumetric flask, dissolved with DMSO, and diluted to volume after being dissolved completely. 1 ml of each diluted monomer solution was put into a 50-1000 ml volumetric flask, added with water, blended and diluted to volume so as to prepare a solution with a concentration of 2 ppm, 0.2 ppm, or 0.02 ppm.
The method was substantially the same as that in Example 2, except that the test samples were monomer chlorin e6 and control monomer chlorin e6 iron (III), both at a concentration of 0.02 ppm and the test seeds were corn, soybean, rice and wheat seeds. The preparation method of the control monomer was conducted by referring to CN102273467B.

soybean seeds [1] = assay: Soybean seed germination experiment (seed soaking method)
Protocol: (§1) Test Method: Ministerial Standard NYT 2061.1-2011, Seed Soaking Method 10 mg of each sample was weighed and put into a 10 ml volumetric flask, dissolved with DMSO, and diluted to volume after being dissolved completely. 1 ml of each diluted monomer solution was put into a 50-1000 ml volumetric flask, added with water, blended and diluted to volume so as to prepare a solution with a concentration of 2 ppm, 0.2 ppm, or 0.02 ppm. The method was substantially the same as that in Example 1 except that soybean seeds were used as the crop seeds, and the samples were crude chlorin, pyropheophorbide, chlorin f, chlorin e6, chlorin e4, purpurin-18, 15-oxymethyl rhodochlorin lactone, and 15-hydroxymethyl rhodochlorin lactone. The method was substantially the same as that in Example 2, except that the test samples were monomer chlorin e6 and control monomer chlorin e6 iron (III), both at a concentration of 0.02 ppm and the test seeds were corn, soybean, rice and wheat seeds. The preparation method of the control monomer was conducted by referring to CN102273467B.

rice seeds = assay: Rice seed germination experiment (seed soaking method)
Protocol: as §1, with “Example 2” for “Example 1”, “that rice” for “that soybean”, “crop seeds.” for “crop seeds, and the samples were crude chlorin, pyropheophorbide, chlorin f, chlorin e6, chlorin e4, purpurin-18, 15-oxymethyl rhodochlorin lactone, and 15-hydroxymethyl rhodochlorin lactone.”

wheat seeds = assay: Wheat seed germination experiment (seed soaking method)
Protocol: as §1, with “Example 2” for “Example 1”, “that wheat” for “that soybean”, “crop seeds.” for “crop seeds, and the samples were crude chlorin, pyropheophorbide, chlorin f, chlorin e6, chlorin e4, purpurin-18, 15-oxymethyl rhodochlorin lactone, and 15-hydroxymethyl rhodochlorin lactone.”

soybean seeds [2] = assay: Soybean seed germination experiment (seed soaking method); conditions: 0.2 ppm sample solution
[3] = 0.02 ppm sample solution, seed soaking
[4] = 0.2 ppm sample solution, seed soaking
[5] = 2 ppm sample solution, seed soaking
[6] = soybean seeds, 0.02 ppm sample solution
[7] = soybean seeds, 0.2 ppm sample solution
[8] = soybean seeds, 2 ppm sample solution
[9] = comparison of the monomers, 0.02 ppm
[10] = comparison of the monomers, 0.02 ppm, listed as chlorin e6
[11] = comparison of the monomers, soy bean seeds, 0.02 ppm

Work on 15-oxymethyl rhodochlorin yielded a Germination rate % (corn seeds; [3]) of 56%, a Germination rate % (corn seeds; [4]) of 52% and a Germination rate % (corn seeds; [5]) of 52%.

In the case of 15-oxymethyl rhodochlorin lactone, the Germination rate % (corn seeds; [3]) is reported as 54%, the Germination rate % (corn seeds; [4]) is reported as 66% and the Germination rate % (corn seeds; [5]) is reported as 58%. The Germination rate % (soybean seeds [1]; [6]) was 58%, the Germination rate % (soybean seeds [1]; [7]) was 58% and the Germination rate % (soybean seeds [1]; [8]) was 60%. It also gave a Germination rate % (rice seeds; 0.02 ppm sample solution) of 72%, a Germination rate % (rice seeds; 2 ppm sample solution) of 70% and a Germination rate % (wheat seeds; 0.2 ppm sample solution) of 94%. It also gave a Germination rate % (wheat seeds; 2 ppm sample solution) of 82%.

With `C=Cc1c(C)c2cc3nc(c(C=O)c4[nH]c(cc5nc(cc1[nH]2)C(C)=C5CC)c(C)c4C(=O)O)[C@@H](CCC(=O)O)[C@@H]3C` [15-formyl rhodochlorin] the Germination rate % (corn seeds; [3]) was 52%, the Germination rate % (corn seeds; [4]) was 51% and the Germination rate % (corn seeds; [5]) was 54%.

With `C=Cc1c(C)c2cc3nc(c4c5[nH]c(cc6nc(cc1[nH]2)C(C)=C6CC)c(C)c5C(=O)OC4)C(CCC(=O)O)C3C` (centres unmarked) [15-hydroxymethyl rhodochlorin lactone] the Germination rate % (corn seeds; [3]) was 60%, the Germination rate % (corn seeds; [4]) was 54% and the Germination rate % (corn seeds; [5]) was 48%. The Germination rate % (soybean seeds [1]; [7]) was 60%, the Germination rate % (rice seeds; 0.02 ppm sample solution) was 72% and the Germination rate % (rice seeds; 0.2 ppm sample solution) was 74%. It also gave a Germination rate % (rice seeds; 2 ppm sample solution) of 68%, a Germination rate % (wheat seeds; 0.02 ppm sample solution) of 86% and a Germination rate % (wheat seeds; 0.2 ppm sample solution) of 96%. It also gave a Germination rate % (wheat seeds; 2 ppm sample solution) of 92%.

`C=Cc1c(C)c2cc3nc(c(CO)c4[nH]c(cc5nc(cc1[nH]2)C(C)=C5CC)c(C)c4C(=O)O)C(CCC(=O)O)C3C` (centres unmarked) [15-hydroxymethyl rhodochlorin] showed a Germination rate % (corn seeds; [3]) of 58%, a Germination rate % (corn seeds; [4]) of 59% and a Germination rate % (corn seeds; [5]) of 55%.

`C=Cc1c(C)c2cc3nc(c(C)c4[nH]c(cc5nc(cc1[nH]2)C(C)=C5CC)c(C)c4C(=O)O)[C@@H](CCC(=O)O)[C@@H]3C` [Chlorin e4, chlorin e4] showed a Germination rate % (corn seeds; [3]) of 57%, a Germination rate % (corn seeds; [4]) of 55% and a Germination rate % (corn seeds; [5]) of 48%. It also gave a Germination rate % (soybean seeds [1]; [6]) of 67%, a Germination rate % (soybean seeds [1]; [7]) of 66% and a Germination rate % (soybean seeds [1]; [8]) of 65%. For the same compound, the Germination rate % (rice seeds; 0.02 ppm sample solution) was 71%, the Germination rate % (rice seeds; 0.2 ppm sample solution) was 76% and the Germination rate % (rice seeds; 2 ppm sample solution) was 77%. The Germination rate % (wheat seeds; 0.02 ppm sample solution) was 93%, the Germination rate % (wheat seeds; 0.2 ppm sample solution) was 98% and the Germination rate % (wheat seeds; 2 ppm sample solution) was 97%.

In the case of `C=Cc1c(C)c2cc3nc(c(CC(=O)O)c4[nH]c(cc5nc(cc1[nH]2)C(C)=C5CC)c(C)c4C(=O)O)[C@@H](CCC(=O)O)[C@@H]3C` [Chlorin e6, chlorin e6], the Germination rate % (corn seeds; [3]) is reported as 58%, the Germination rate % (corn seeds; [4]) is reported as 42% and the Germination rate % (corn seeds; [5]) is reported as 46%. For the same compound, the Germination rate % (corn seeds; [9]) was 58%, the Germination rate % (corn seeds; [10]) was “all better than those for the iron chelate monomer chlorin e6 iron (III)” and the Germination rate % (soybean seeds [1]; [11]) was 66%. For the same compound, the Germination rate % (soybean seeds [1]; comparison of the monomers, soy bean seeds, 0.02 ppm, listed as chlorin e6) was “all better than those for the iron chelate monomer chlorin e6 iron (III)”, the Germination rate % (soybean seeds [1]; [6]) was 60% and the Germination rate % (soybean seeds [1]; [7]) was 59%. For the same compound, the Germination rate % (soybean seeds [1]; [8]) was 60%, the Germination rate % (rice seeds; 0.02 ppm sample solution) was 70% and the Germination rate % (rice seeds; 0.2 ppm sample solution) was 74%. For the same compound, the Germination rate % (rice seeds; 2 ppm sample solution) was 68%, the Germination rate % (rice seeds; [9]) was 76% and the Germination rate % (rice seeds; [10]) was “all better than those for the iron chelate monomer chlorin e6 iron (III)”. For the same compound, the Germination rate % (wheat seeds; 0.02 ppm sample solution) was 94%, the Germination rate % (wheat seeds; 0.02 ppm sample solution, listed as chlorin e6) was “best germination effect” and the Germination rate % (wheat seeds; 0.2 ppm sample solution) was 96%. For the same compound, the Germination rate % (wheat seeds; 2 ppm sample solution) was 90%, the Germination rate % (wheat seeds; [9]) was 94% and the Germination rate % (wheat seeds; [10]) was “all better than those for the iron chelate monomer chlorin e6 iron (III)”.

For `C=Cc1c(C)c2cc3nc(c(C(=O)O)c4[nH]c(cc5nc(cc1[nH]2)C(C)=C5CC)c(C)c4C(=O)O)[C@@H](CCC(=O)O)[C@@H]3C` [Chlorin p6, chlorin p6], the Germination rate % (corn seeds; [3]) was 49%, the Germination rate % (corn seeds; [4]) was 55% and the Germination rate % (corn seeds; [5]) was 52%.

In the case of `C=Cc1c(C)c2cc3nc(c4c5[nH]c(cc6nc(cc1[nH]2)C(C)=C6CC)c(C)c5C(=O)[C@@H]4C(=O)OC)[C@@H](CCC(=O)O)[C@@H]3C` [Pheophorbide, pheophorbide], the Germination rate % (corn seeds; [3]) is reported as 57%, the Germination rate % (corn seeds; [4]) is reported as 55% and the Germination rate % (corn seeds; [5]) is reported as 56%.

`C=Cc1c(C)c2cc3nc(c4c5[nH]c(cc6nc(cc1[nH]2)C(C)=C6CC)c(C)c5C(=O)OC4=O)[C@@H](CCC(=O)O)[C@@H]3C` [Purpurin-18, purpurin-18] gave a Germination rate % (corn seeds; [3]) of 55%, a Germination rate % (corn seeds; [4]) of 58% and a Germination rate % (corn seeds; [5]) of 53%. The Germination rate % (soybean seeds [1]; [6]) was 66%, the Germination rate % (soybean seeds [1]; [7]) was 65% and the Germination rate % (soybean seeds [1]; [8]) was 67%. For the same compound, the Germination rate % (rice seeds; 0.02 ppm sample solution) was 77%, the Germination rate % (rice seeds; 0.2 ppm sample solution) was 78% and the Germination rate % (rice seeds; 2 ppm sample solution) was 76%. The Germination rate % (wheat seeds; 0.02 ppm sample solution) was 97%, the Germination rate % (wheat seeds; 0.2 ppm sample solution) was 97% and the Germination rate % (wheat seeds; 2 ppm sample solution) was 95%.

In the case of `C=Cc1c(C)c2cc3nc(c4c5[nH]c(cc6nc(cc1[nH]2)C(C)=C6CC)c(C)c5C(=O)C4)[C@@H](CCC(=O)O)[C@@H]3C` [Pyropheophorbide, pyropheophorbide], the Germination rate % (corn seeds; [3]) is reported as 58%, the Germination rate % (corn seeds; [4]) is reported as 56% and the Germination rate % (corn seeds; [5]) is reported as 55%. The Germination rate % (soybean seeds [1]; [6]) was 61%, the Germination rate % (soybean seeds [1]; [7]) was 67% and the Germination rate % (soybean seeds [1]; [8]) was 65%. For the same compound, the Germination rate % (rice seeds; 0.02 ppm sample solution) was 73%, the Germination rate % (rice seeds; 0.2 ppm sample solution) was 74% and the Germination rate % (rice seeds; 2 ppm sample solution) was 72%. The Germination rate % (wheat seeds; 0.02 ppm sample solution) was 94%, the Germination rate % (wheat seeds; 0.2 ppm sample solution) was 92% and the Germination rate % (wheat seeds; 2 ppm sample solution) was 93%.

In the case of “chlorin e6 iron (III) [reference compound]”, the Germination rate % (corn seeds; [9]) is reported as 46%, the Germination rate % (soybean seeds [1]; [11]) is reported as 60% and the Germination rate % (rice seeds; [9]) is reported as 58%. It also gave a Germination rate % (wheat seeds; [9]) of 92%.

With chlorin f the Germination rate % (corn seeds; [3]) was 55%, the Germination rate % (corn seeds; [4]) was 66% and the Germination rate % (corn seeds; [5]) was 58%. It also gave a Germination rate % (soybean seeds [1]; [6]) of 66%, a Germination rate % (soybean seeds [1]; [7]) of 54% and a Germination rate % (soybean seeds [1]; [8]) of 62%. The Germination rate % (soybean seeds [1]; soybean seeds, 2 ppm sample solution, listed as chlorin f) was “better germination effects than the positive control”, the Germination rate % (rice seeds; 0.02 ppm sample solution) was 76% and the Germination rate % (rice seeds; 0.2 ppm sample solution) was 72%. For the same compound, the Germination rate % (rice seeds; 2 ppm sample solution) was 66%, the Germination rate % (wheat seeds; 0.02 ppm sample solution) was 94% and the Germination rate % (wheat seeds; 0.02 ppm sample solution, listed as chlorin f) was “best germination effect”. For the same compound, the Germination rate % (wheat seeds; 0.2 ppm sample solution) was 88% and the Germination rate % (wheat seeds; 2 ppm sample solution) was 92%.

Work on iron chlorin e6 [reference compound] yielded a Germination rate % (corn seeds; [3]) of 53%, a Germination rate % (corn seeds; [4]) of 57% and a Germination rate % (corn seeds; [5]) of 64%. For the same compound, the Germination rate % (soybean seeds [1]; [6]) was 60%, the Germination rate % (soybean seeds [1]; [7]) was 66% and the Germination rate % (soybean seeds [1]; [8]) was 56%. The Germination rate % (rice seeds; 0.02 ppm sample solution) was 78%, the Germination rate % (rice seeds; 0.02 ppm sample solution, listed as iron chlorin e6) was “best germination effect” and the Germination rate % (rice seeds; 0.2 ppm sample solution) was 76%. The Germination rate % (rice seeds; 2 ppm sample solution) was 74%, the Germination rate % (rice seeds; 2 ppm sample solution, listed as iron chlorin e6) was “best germination effect” and the Germination rate % (wheat seeds; 0.02 ppm sample solution) was 90%. For the same compound, the Germination rate % (wheat seeds; 0.2 ppm sample solution) was 88%, the Germination rate % (wheat seeds; 2 ppm sample solution) was 86% and the Germination rate % (soybean seeds [2]) was “most ideal germination effect”.

With purpurin-7 the Germination rate % (corn seeds; [3]) was 56%, the Germination rate % (corn seeds; [4]) was 57% and the Germination rate % (corn seeds; [5]) was 53%.
